Experimental findings from US20250188075A1, “SUBSTITUTED HETEROCYCLIC CSNK1 INHIBITORS” (The Broad Institute, Inc., priority 2022, published 2025) are described below.

One assay deals with LoVo cells. Briefly: LoVo cell proliferation assay, CTG method. In kind it is cell-based. As to conditions: Homo sapiens, 96 h, median, read-out: 2D-PROLI LoVo CTG 96 h, IC50 - [mol/l] (median). As for the experimental part:
CELL PROLIFERATION ASSAY CTG METHOD, 384-well version: Day 1: plate 400 cells/30 μL/well in growth medium (RPMI 1640 (Gibco #61870-10; with Glutamax)+10% FBS) in 384-well black plates (Corning #3571). Plated sister wells in a separate plate for time zero determination. Incubated all plates overnight at 37° C. Day 2: added test compounds in serial dilutions using the HP D300 Digital Dispenser and incubate at 37° C. for 96 h. Measured time zero plate: add 30 μL/well CTG solution (Promega CellTiter-Glo solution (catalog #G7573)) to wells in time zero plate; incubated for 2 minutes in a orbital shaker to induce cell lysis; allowed the plate to incubate at room temperature for additional 10 min to stabilize luminescent signal and read luminescence on PheraStar (rapid mode-0.02 sec/well; GAIN 3000). Day 6: Added 30 μL/well CTG solution to all test wells, incubated for 2 minutes in a orbital shaker to induce cell lysis; allowed the plate to incubate at room temperature for additional 10 min to stabilize luminescent signal and read luminescence on PheraStar (rapid mode-0.02 sec/well; GAIN 3000). Proliferation IC50s were calculated using the DRC application in ShiNy Analysis Platform-SNAP.”

The subject of a further assay is HCT 116 cells. Put plainly: HCT 116 cell proliferation assay, CTG. In kind it is cell-based. To be noted: Homo sapiens; HCT 116, CTG, 96 h; median; read-out: 2D-PROLI HCT 116 CTG 96 h, IC50 - [mol/l] (median). As for the experimental part:
400 HCT 116 cells/30 μL/well were plated in growth medium (DMEM/Ham's F12, 10% FCS) in a 384-well plate (CORNING #3571) at day 1. Reference plate was seeded for time zero determination. All plates were incubated overnight 37° C. Day 2: test compound was added in 7-step dilution and incubate at 37° C. for 96 h. Day 2: time zero plate: 30 μL/well CTG solution (Promega Cell Titer Glo solution; catalog #G755B and G756B) were added, incubated for 30 minutes, read luminescence on PheraStar. Day 6: compound treated plates: 30 μL/well CTG solution (Promega Cell Titer Glo solution; catalog #G755B and G756B) were added, incubated for 30 minutes, luminescence was read on PheraStar. Proliferation was calculated after subtracting time zero luminescence values from day 6 values and comparing to untreated wells. The IC50 values were determined using the four parameter fit.

The next assay deals with human CSNK1A1 (Homo sapiens (Human), UniProt P48729). Put plainly: CSNK1A1 high ATP assay (ADP-Glo, 1 mM ATP). The format is biochemical. To be noted: median, read-out: CSNK1A1 High ATP assay IC50 [mol/l] (median). As for the experimental part:
CSNK1A1-inhibitory activity of compounds of the present invention in presence of 1 mM adenosine-tri-phosphate (ATP) was quantified employing the CSNK1A1-high-ATP-assay as described in the following paragraphs. In essence, the enzyme activity is measured by quantification of the adenosine-di-phosphate (ADP), which is generated as a co-product of the enzyme reaction, via the “ADP-Glo™ Kinase Assay” kit from the company Promega. This detection system works as follows: In a first step the ATP not consumed in the kinase reaction is quantitatively converted to CAMP employing an adenylate cyclase (“ADP-Glo-reagent”), then the adenylate cyclase is stopped and the ADP generated in the kinase reaction converted to ATP which generates in a luciferase-based reaction a glow-luminescence signal (“Kinase Detection Reagent”).
Recombinant fusion protein of N-terminal Glutathion-S-Transferase (GST) and full-length human CSNK1A1, expressed by baculovirus infected insect cells and purified via Glutathion affinity chromatography, was purchased from Life Technologies (product no. PV4174) and used as enzyme. As substrate for the kinase reaction the biotinylated peptide biotin-Ahx-KRRRAL-pS-VASLPGL (C-terminus in amide form) was used which can be purchased e.g. from the company Biosyntan (Berlin-Buch, Germany).
For the assay 50 nl of a 100 fold concentrated solution of the test compound in DMSO was pipetted into a white low volume 384-well microtiter plate (Greiner Bio-One, Frickenhausen, Germany), 2 μL of a solution of CSNK1A1 in aqueous assay buffer [50 mM HEPES pH 7.5, 10% (v/v) glycerol, 10 mM MgCl2, 50 mM NaCl, 1 mM dithiothreitol, 0.01% (w/v) bovine serum albumin, 0.01% (v/v) Triton X-100] were added and the mixture was incubated for 15 min at 22° C. to allow pre-binding of the test compounds to the enzyme before the start of the kinase reaction. Then the kinase reaction was started by the addition of 3 μL of a solution of ATP (1.67 mM=>final conc. in the 5 μL assay volume is 1 mM) and peptide substrate (167 μM=>final conc. in the 5 μL assay volume is 100 μM) in assay buffer and the resulting mixture was incubated for a reaction time of 30 min at 22° C. The concentration of CSNK1A1 was adjusted depending of the activity of the enzyme lot and was chosen appropriate to have the assay in the linear range, a typical concentration is about 0.4 ng/μL. The reaction was stopped by the addition of 2.5 μL of “ADP-Glo-reagent” (1:1.5 fold diluted with water) and the resulting mixture was incubated at 22° C. for 1 h to convert the ATP not consumed in the kinase reaction completely to CAMP. Subsequently 2.5 μL of the “kinase detection reagent” (1.2 fold more concentrated than recommended by the producer) were added, the resulting mixture was incubated at 22° C. for 1 h and then the luminescence measured with a suitable measurement instrument (e.g. Viewlux™ from Perkin-Elmer). The amount of emitted light was taken as a measure for the amount of ADP generated and thereby for the activity of the CSNK1A1.
The data were normalised (enzyme reaction without inhibitor=0% inhibition, all other assay components but no enzyme=100% inhibition).
A general note: ADP-Glo first removes unused ATP, then detects ADP through luciferase.

SMILES strings stand for the structures.

Chain of human CSNK1A1 (P48729 whole entry): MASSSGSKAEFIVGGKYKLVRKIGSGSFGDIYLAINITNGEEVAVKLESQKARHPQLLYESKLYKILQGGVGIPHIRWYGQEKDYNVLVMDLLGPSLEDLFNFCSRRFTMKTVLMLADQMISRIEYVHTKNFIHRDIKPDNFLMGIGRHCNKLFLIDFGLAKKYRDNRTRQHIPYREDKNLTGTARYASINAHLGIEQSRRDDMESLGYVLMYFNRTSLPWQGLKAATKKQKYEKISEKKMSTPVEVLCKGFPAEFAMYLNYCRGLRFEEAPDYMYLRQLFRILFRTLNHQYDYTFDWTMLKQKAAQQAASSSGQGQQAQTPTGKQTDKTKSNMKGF

Regarding `O=C(Cc1cnc2ccccn12)Nc1cc(-c2[nH]c3cccnc3c2-c2ccccn2)ccn1` [Example 1, 2-imidazo[1,2-a]pyridin-3-yl-N-[4-[3-(2-pyridyl)-^1H-pyrrolo[3,2-b]pyridin-2-yl]-2-pyridyl]acetamide], the IC50 came out at 12.4 µM with LoVo cells, 3.87 µM in the assay with HCT 116 cells and 0.0385 µM on human CSNK1A1.

On to `Cn1cc(CC(=O)Nc2cc(-c3[nH]c4cccnc4c3-c3ccccn3)ccn2)cn1` [Example 2, 2-(1-methylpyrazol-4-yl)-N-[4-[3-(2-pyridyl)-^1H-pyrrolo[3,2-b]pyridin-2-yl]-2-pyridyl]acetamide], for which the results for the IC50 in the assay with LoVo cells, with HCT 116 cells and on human CSNK1A1 were 8.41 µM, 3.6 µM and 0.0316 µM, respectively.

Regarding `Cc1nc(CC(=O)Nc2cc(-c3[nH]c4cccnc4c3-c3ccccn3)ccn2)cs1` [Example 3, 2-(2-methylthiazol-4-yl)-N-[4-[3-(2-pyridyl)-^1H-pyrrolo[3,2-b]pyridin-2-yl]-2-pyridyl]acetamide], the IC50 with LoVo cells amounted to 0.363 µM; in the assay on HCT 116 cells it was 0.359 µM; at human CSNK1A1, 0.0308 µM.

Consider `O=C(Cc1cnco1)Nc1cc(-c2[nH]c3cccnc3c2-c2ccccn2)ccn1` [Example 4], for which the IC50 in the assay with LoVo cells is 3.13 µM; with HCT 116 cells it was 0.535 µM.

On to `Cn1cnc(CC(=O)Nc2cc(-c3[nH]c4cccnc4c3-c3ccccn3)ccn2)c1` [Example 5, 2-(1-methylimidazol-4-yl)-N-[4-[3-(2-pyridyl)-^1H-pyrrolo[3,2-b]pyridin-2-yl]-2-pyridyl]acetamide], for which the IC50 is 7.43 µM with LoVo cells, 2.79 µM in the assay with HCT 116 cells and 0.589 µM on human CSNK1A1.

As to `O=C(Cc1cnc2ccccc2n1)Nc1cc(-c2[nH]c3cccnc3c2-c2ccccn2)ccn1` [Example 6, N-[4-[3-(2-pyridyl)-^1H-pyrrolo[3,2-b]pyridin-2-yl]-2-pyridyl]-2-quinoxalin-2-yl-acetamide], the IC50 in the assay with LoVo cells was found to be 0.177 µM; in the assay with HCT 116 cells, 0.0911 µM; at human CSNK1A1, 0.00606 µM.

Take `Cc1nn(C)cc1CC(=O)Nc1cc(-c2[nH]c3cccnc3c2-c2ccccn2)ccn1` [Example 9, 2-(1,3-dimethylpyrazol-4-yl)-N-[4-[3-(2-pyridyl)-^1H-pyrrolo[3,2-b]pyridin-2-yl]-2-pyridyl]acetamide]: the IC50 worked out at 4.07 µM in the assay with LoVo cells and 0.817 µM in the assay with HCT 116 cells.

Take `O=C(Cc1ccon1)Nc1cc(-c2[nH]c3cccnc3c2-c2ccccn2)ccn1` [Example 10, 2-isoxazol-3-yl-N-[4-[3-(2-pyridyl)-^1H-pyrrolo[3,2-b]pyridin-2-yl]-2-pyridyl]acetamide]: the figures for the IC50 with LoVo cells and in the assay with HCT 116 cells were 3.24 µM and 0.848 µM, respectively.

As to `Cc1ocnc1CC(=O)Nc1cc(-c2[nH]c3cccnc3c2-c2ccccn2)ccn1` [Example 11, 2-(5-methyloxazol-4-yl)-N-[4-[3-(2-pyridyl)-^1H-pyrrolo[3,2-b]pyridin-2-yl]-2-pyridyl]acetamide], the IC50 in the assay with LoVo cells amounted to 3.32 µM; with HCT 116 cells, 0.964 µM.

`Cc1noc(C)c1CC(=O)Nc1cc(-c2[nH]c3cccnc3c2-c2ccccn2)ccn1` [Example 12, 2-(3,5-dimethylisoxazol-4-yl)-N-[4-[3-(2-pyridyl)-^1H-pyrrolo[3,2-b]pyridin-2-yl]-2-pyridyl]acetamide]: the IC50 in the assay with LoVo cells turned out to be 6.81 µM; in the assay with HCT 116 cells it was 1.08 µM; on human CSNK1A1, 0.0669 µM.

As for `Cc1cc(CC(=O)Nc2cc(-c3[nH]c4cccnc4c3-c3ccccn3)ccn2)on1` [Example 13, 2-(3-methylisoxazol-5-yl)-N-[4-[3-(2-pyridyl)-^1H-pyrrolo[3,2-b]pyridin-2-yl]-2-pyridyl]acetamide], the IC50 worked out at 3.14 µM in the assay on LoVo cells, 0.626 µM with HCT 116 cells and 0.0413 µM on human CSNK1A1.

As to `Cc1cc(CC(=O)Nc2cc(-c3[nH]c4cccnc4c3-c3ccccn3)ccn2)n(C)n1` [Example 14], the IC50 in the assay with LoVo cells was found to be 3.75 µM; with HCT 116 cells, 0.544 µM; at human CSNK1A1, 0.0306 µM.

On to `O=C(Cc1cc2ccccn2n1)Nc1cc(-c2[nH]c3cccnc3c2-c2ccccn2)ccn1` [Example 15, 2-pyrazolo[1,5-a]pyridin-2-yl-N-[4-[3-(2-pyridyl)-^1H-pyrrolo[3,2-b]pyridin-2-yl]-2-pyridyl]acetamide], for which the IC50 in the assay on LoVo cells was 0.192 µM; in the assay with HCT 116 cells it was 0.171 µM; at human CSNK1A1 it was 0.0242 µM.

Take `Cc1cc(CC(=O)Nc2cc(-c3[nH]c4cccnc4c3-c3ccccn3)ccn2)nn1C` [Example 16, 2-(1,5-dimethylpyrazol-3-yl)-N-[4-[3-(2-pyridyl)-^1H-pyrrolo[3,2-b]pyridin-2-yl]-2-pyridyl]acetamide]: the IC50 with LoVo cells stood at 1.5 µM; in the assay on HCT 116 cells, 0.706 µM; at human CSNK1A1 it was 0.0708 µM.

Take `Cc1nn(C)c(C)c1CC(=O)Nc1cc(-c2[nH]c3cccnc3c2-c2ccccn2)ccn1` [Example 17, N-[4-[3-(2-pyridyl)-^1H-pyrrolo[3,2-b]pyridin-2-yl]-2-pyridyl]-2-(1,3,5-trimethylpyrazol-4-yl)acetamide]: the figures for the IC50 in the assay with LoVo cells, in the assay with HCT 116 cells and on human CSNK1A1 were 5.66 µM, 1.03 µM and 0.124 µM, respectively.

`Cc1ncc(CC(=O)Nc2cc(-c3[nH]c4cccnc4c3-c3ccccn3)ccn2)o1` [Example 24, 2-(2-methyloxazol-5-yl)-N-[4-[3-(2-pyridyl)-^1H-pyrrolo[3,2-b]pyridin-2-yl]-2-pyridyl]acetamide]: the IC50 with LoVo cells was 2.38 µM; with HCT 116 cells, 0.418 µM.

For the compound `Cc1nc(CC(=O)Nc2cc(-c3[nH]c4cccnc4c3-c3ccccn3)ccn2)co1` [Example 25, 2-(2-methyloxazol-4-yl)-N-[4-[3-(2-pyridyl)-^1H-pyrrolo[3,2-b]pyridin-2-yl]-2-pyridyl]acetamide], the figures for the IC50 with LoVo cells and in the assay with HCT 116 cells were 2.11 µM and 0.985 µM, respectively.

As for `CC(C)n1ccc(CC(=O)Nc2cc(-c3[nH]c4cccnc4c3-c3ccccn3)ccn2)n1` [Example 28, 2-(1-isopropylpyrazol-3-yl)-N-[4-[3-(2-pyridyl)-^1H-pyrrolo[3,2-b]pyridin-2-yl]-2-pyridyl]acetamide], the values for the IC50 in the assay on LoVo cells and with HCT 116 cells were 0.636 µM and 0.586 µM, respectively.

Consider `Cc1nocc1CC(=O)Nc1cc(-c2[nH]c3cccnc3c2-c2ccccn2)ccn1` [Example 30, 2-(3-methylisoxazol-4-yl)-N-[4-[3-(2-pyridyl)-^1H-pyrrolo[3,2-b]pyridin-2-yl]-2-pyridyl]acetamide], for which the values for the IC50 in the assay with LoVo cells and with HCT 116 cells were 10.5 µM and 1.14 µM, respectively.
